Publication PMC9026428, “New Peptide Based Fluconazole Conjugates with Expanded Molecular Targets” (Pharmaceutics, 2022)
Values after ≈ are worked out from the molar mass of the structure shown. Non-standard residues stand in square brackets, D forms with d. Residues, ends and D or L forms follow the SMILES beside them. *: point of attachment. X1 = O=C(CCCC(=O)*)OC(Cn1cncn1)(Cn1cncn1)c1ccc(F)cc1F; Nle = CCCC[C@H](N)C(=O)O

What was measured:
Test in all cases: microbe, parasite or virus in culture
Candida albicans SC 5314 = conditions: C. albicans SC 5314, 37 °C; for MIC50 / MIC90: RPMI 1640/MOPS pH 7.0, 24 h, triplicate; for MIC50: at least 50% growth inhibition vs growth control; for MIC90: lowest concentration with no visible growth; for MFC: aliquots plated on YPD agar, 24 h, lowest concentration with no colony growth
Experimental: (§1) The assessment of antifungal potential of synthesized agents was carried out using four reference strains (C. albicans ATCC 10231, C. albicans SC5314, C. glabrata DSM […] and C. krusei DSM […]) and six clinical isolates of fluconazole-resistant C. albicans that were provided by the Hospital of Medical University of Gdansk, Poland. Moreover, four C. albicans isolates, assigned as B3, B4, Gu4 and Gu5, were used for investigation whether the synthesized fluconazole derivatives were effectively removed from the yeast cells by the drug efflux transporters, as in the case of fluconazole. These strains were kindly provided by Prof. Joachim Morschhäuser from University of Würzburg (Würzburg, Germany). Strains Gu4 and B3 were fluconazole-sensitive isolates obtained from early infection episodes, while Gu5 and B4 were the corresponding fluconazole-resistant isolates obtained from later episodes in the same patients treated with fluconazole. The lack of susceptibility of the Gu5 strain to fluconazole was a consequence of overexpression of CDR1/2 genes encoding ABC transporters, whereas the resistance of B4 strain was caused by overexpression of the MDR1 gene encoding a membrane transport protein of the major facilitator superfamily (MFS). All of these Candida spp. strains were maintained on YPD agar plates (1% (w/v) yeast extract, 2% (w/v) peptone, 2% (w/v) glucose, 2% (w/v) agar) at 30 °C for 16–24 h. For all of the assays aimed at assessing the antifungal potential of the synthesized agents, the yeasts were cultivated at 37 °C in RPMI 1640 medium (with L-glutamine, without sodium bicarbonate, Sigma-Aldrich, Darmstadt, Germany)) buffered to a pH of 7.0 with 0.165 M morpholinepropanesulfonic acid (MOPS) buffer (Sigma-Aldrich). In this study, we used the human foreskin fibroblast cell line Hs27 (ATCC CRL 1634TM) and the human endothelial cell line HUVEC (C2519A), purchased from Lonza Group AG, (Basel, Switzerland). The Hs27 cells were maintained in cell media consisting of Dulbecco’s modified Eagles medium (DMEM), (Corning, Arizona, USA) with 10% fetal bovine serum (FBS), (Corning, Port Elizabeth, South Africa), 1% penicillin/streptomycin (Sigma-Aldrich Inc., Darmstadt, Germany), and 1% L-glutamine (Corning, Arizona, USA). The human endothelial cell line was maintained in cell media consisting of Endothelial Cell Growth Medium-2 Single Quots Kit (Lonza, USA). Both cell lines were cultured in an incubator at 37 °C and 5% CO2.
(§2) Antifungal activity of the tested compounds against yeast cells was determined in 96-well plates as described in the CLSI document M27-A3 [39], with minor modifications (CLSI, 2008). […] The plates were incubated for 24 h at 37 °C. Each test was performed in triplicate. The final concentration of DMSO was ensured to be around 1% in all experiments.
(§3) For determination of minimum fungicidal concentrations (MFC), small aliquots of suspensions (around 10 μL) from each well were transferred using the pipette to YPD agar plates without inhibitors and incubated for 24 h at 37 °C.

[1] = tested on: Candida glabrata DSM 6128; conditions: C. glabrata DSM 6128, RPMI 1640/MOPS pH 7.0, 24 h, 37 °C, triplicate; for MIC50: at least 50% growth inhibition vs growth control; for MIC90: lowest concentration with no visible growth
Experimental: as §1, §2, §3

Candida albicans 574 = conditions: C. albicans 574 (fluconazole-resistant clinical isolate), RPMI 1640/MOPS pH 7.0, 24 h, 37 °C, triplicate; for MIC50: at least 50% growth inhibition vs growth control; for MIC90: lowest concentration with no visible growth
Experimental: as §1, §2, §3

Candida albicans 190 = conditions: C. albicans 190 (fluconazole-resistant clinical isolate), RPMI 1640/MOPS pH 7.0, 24 h, 37 °C, triplicate; for MIC50: at least 50% growth inhibition vs growth control; for MIC90: lowest concentration with no visible growth
Experimental: as §1, §2, §3

Candida albicans 604 = conditions: C. albicans 604 (fluconazole-resistant clinical isolate), RPMI 1640/MOPS pH 7.0, 24 h, 37 °C, triplicate; for MIC50: at least 50% growth inhibition vs growth control; for MIC90: lowest concentration with no visible growth
Experimental: as §1, §2, §3

Candida albicans Gu4 = conditions: C. albicans Gu4 (fluconazole-sensitive isolate), RPMI 1640/MOPS pH 7.0, 24 h, 37 °C, triplicate; for MIC50: at least 50% growth inhibition vs growth control; for MIC90: lowest concentration with no visible growth
Experimental: as §1, §2, §3

Candida albicans 48 = conditions: C. albicans 48 (fluconazole-resistant clinical isolate), RPMI 1640/MOPS pH 7.0, 24 h, 37 °C, triplicate; for MIC50: at least 50% growth inhibition vs growth control; for MIC90: lowest concentration with no visible growth
Experimental: as §1, §2, §3

Candida albicans 138 = conditions: C. albicans 138 (fluconazole-resistant clinical isolate), RPMI 1640/MOPS pH 7.0, 24 h, 37 °C, triplicate; for MIC50: at least 50% growth inhibition vs growth control; for MIC90: lowest concentration with no visible growth
Experimental: as §1, §2, §3

[2] = tested on: Candida albicans ATCC 10231; conditions: C. albicans ATCC 10231, RPMI 1640/MOPS pH 7.0, 24 h, 37 °C, triplicate; for MIC50: at least 50% growth inhibition vs growth control; for MIC90: lowest concentration with no visible growth
Experimental: as §1, §2, §3

Candida albicans B4 = conditions: C. albicans B4 (fluconazole-resistant, MDR1 overexpression), RPMI 1640/MOPS pH 7.0, 24 h, 37 °C, triplicate; for MIC50: at least 50% growth inhibition vs growth control; for MIC90: lowest concentration with no visible growth
Experimental: as §1, §2, §3

Candida krusei DSM 11226 = conditions: C. krusei DSM 11226, 37 °C; for MIC50 / MIC90: RPMI 1640/MOPS pH 7.0, 24 h, triplicate; for MIC50: at least 50% growth inhibition vs growth control; for MIC90: lowest concentration with no visible growth
Experimental: as §1, §2, §3

Candida albicans Gu5 = conditions: C. albicans Gu5 (fluconazole-resistant, CDR1/2 overexpression), RPMI 1640/MOPS pH 7.0, 24 h, 37 °C, triplicate; for MIC50: at least 50% growth inhibition vs growth control; for MIC90: lowest concentration with no visible growth
Experimental: as §1, §2, §3

| Structure (SMILES) | MIC50 (Candida albicans SC 5314) | MIC90 (Candida albicans SC 5314) | MIC50 [1] | MIC90 [1] | MIC50 (Candida albicans 574) | MIC90 (Candida albicans 574) | MIC50 (Candida albicans 190) | MIC90 (Candida albicans 190) | MIC50 (Candida albicans 604) | MIC90 (Candida albicans 604) | MIC50 (Candida albicans Gu4) | MIC90 (Candida albicans Gu4) | MIC50 (Candida albicans 48) | MIC90 (Candida albicans 48) | MIC50 (Candida albicans 138) | MIC90 (Candida albicans 138) | MIC50 [2] | MIC90 [2] | MIC50 (Candida albicans B4) | MIC90 (Candida albicans B4) | also measured |
| --- | --- | --- | --- | --- | --- | --- | --- | --- | --- | --- | --- | --- | --- | --- | --- | --- | --- | --- | --- | --- | --- |
| CSCC[C@H](NC(=O)[C@H](C)NC(=O)[C@H](CCCNC(=N)N)NC(=O)[C@H](CCCCN)NC(=O)[C@H](Cc1c[nH]c2ccccc12)NC(=O)[C@H](CCC(N)=O)NC(=O)[C@H](Cc1ccccc1)NC(=O)[C@H](CS)NC(=O)CCCC(=O)OC(Cn1cncn1)(Cn1cncn1)c1ccc(F)cc1F)C(=O)N[C@@H](CCCNC(=N)N)C(=O)N[C@@H](CCCCN)C(=O)N[C@H](C(=O)N[C@@H](CCCNC(=N)N)C(N)=O)C(C)C [FLCpOH-HLopt2-NH2] (X1-CFQWKRAMRKVR-NH2) | 62 µM (≈ 125 µg/mL) | 125 µM (≈ 251 µg/mL) | >250 µM | >250 µM | 250 µM (≈ 503 µg/mL) | >250 µM | 250 µM (≈ 503 µg/mL) | >250 µM | >250 µM | >250 µM | >250 µM | >250 µM | 250 µM (≈ 503 µg/mL) | >250 µM | >250 µM | >250 µM | 125 µM (≈ 251 µg/mL) | 250 µM (≈ 503 µg/mL) | >250 µM | >250 µM | MIC50 (Candida krusei DSM 11226): >250 µM; MIC90 (Candida krusei DSM 11226): >250 µM; MIC50 (Candida albicans Gu5): >250 µM; MIC90 (Candida albicans Gu5): >250 µM |
| CSCC[C@H](NC(=O)[C@H](CCCNC(=N)N)NC(=O)[C@H](Cc1c[nH]c2ccccc12)NC(=O)[C@H](CCC(N)=O)NC(=O)[C@H](Cc1c[nH]c2ccccc12)NC(=O)[C@H](CCCNC(=N)N)NC(=O)[C@H](CCCNC(=N)N)NC(=O)[C@H](CS)NC(=O)[C@H](CCCCN)NC(=O)[C@H](Cc1ccccc1)NC(=O)CCCC(=O)OC(Cn1cncn1)(Cn1cncn1)c1ccc(F)cc1F)C(N)=O [FLCpOH-LFacinB(2-11)-NH2] (X1-FKCRRWQWRM-NH2) | 62 µM (≈ 118 µg/mL) | 125 µM (≈ 237 µg/mL) | >250 µM | >250 µM | 190 µM (≈ 361 µg/mL) | 250 µM (≈ 475 µg/mL) | 190 µM (≈ 361 µg/mL) | 250 µM (≈ 475 µg/mL) | 190 µM (≈ 361 µg/mL) | 250 µM (≈ 475 µg/mL) | >250 µM | >250 µM | 250 µM (≈ 475 µg/mL) | >250 µM | 190 µM (≈ 361 µg/mL) | 250 µM (≈ 475 µg/mL) | 125 µM (≈ 237 µg/mL) | 250 µM (≈ 475 µg/mL) | 190 µM (≈ 361 µg/mL) | 250 µM (≈ 475 µg/mL) | MFC (Candida albicans SC 5314): 250 µM (≈ 475 µg/mL); MIC50 (Candida krusei DSM 11226): 31 µM (≈ 58.8 µg/mL); MIC90 (Candida krusei DSM 11226): 62 µM (≈ 118 µg/mL); MFC (Candida krusei DSM 11226; aliquots plated on YPD agar, 24 h, lowest concentration with no colony growth): 125 µM (≈ 237 µg/mL); MIC50 (Candida albicans Gu5): >250 µM; MIC90 (Candida albicans Gu5): >250 µM |
| CCCC[C@H](NC(=O)CCCC(=O)OC(Cn1cncn1)(Cn1cncn1)c1ccc(F)cc1F)C(=O)N[C@@H](Cc1ccccc1)C(=O)N[C@@H](CCCCN)C(=O)N[C@@H](CS)C(=O)N[C@@H](CCCNC(=N)N)C(=O)N[C@@H](CCCNC(=N)N)C(=O)N[C@@H](Cc1c[nH]c2ccccc12)C(=O)N[C@@H](CCC(N)=O)C(=O)N[C@@H](Cc1c[nH]c2ccccc12)C(=O)N[C@@H](CCCNC(=N)N)C(=O)N[C@@H](CCCC)C(=O)N[C@@H](CCCCN)C(=O)N[C@@H](CCCCN)C(=O)N[C@@H](CC(C)C)C(=O)NCC(N)=O [FLCpOH-LFacinB[Nle^1,11]-NH2] (X1-[Nle]FKCRRWQWR[Nle]KKLG-NH2) | 23 µM (≈ 55.7 µg/mL) | 31 µM (≈ 75 µg/mL) | 250 µM (≈ 605 µg/mL) | >250 µM | 45 µM (≈ 109 µg/mL) | 62 µM (≈ 150 µg/mL) | 90 µM (≈ 218 µg/mL) | 125 µM (≈ 302 µg/mL) | 45 µM (≈ 109 µg/mL) | 90 µM (≈ 218 µg/mL) | 125 µM (≈ 302 µg/mL) | 250 µM (≈ 605 µg/mL) | 250 µM (≈ 605 µg/mL) | >250 µM | 23 µM (≈ 55.7 µg/mL) | 31 µM (≈ 75 µg/mL) | 45 µM (≈ 109 µg/mL) | 62 µM (≈ 150 µg/mL) | 250 µM (≈ 605 µg/mL) | >250 µM | MFC (Candida albicans SC 5314): 250 µM (≈ 605 µg/mL); MIC50 (Candida krusei DSM 11226): 31 µM (≈ 75 µg/mL); MIC90 (Candida krusei DSM 11226): 62 µM (≈ 150 µg/mL); MIC50 (Candida albicans Gu5): >250 µM; MIC90 (Candida albicans Gu5): >250 µM |
